From US20160154928A1, “SYSTEMS, METHODS, AND ENVIRONMENT FOR AUTOMATED REVIEW OF GENOMIC DATA TO IDENTIFY DOWNREGULATED AND/OR UPREGULATED GENE EXPRESSION INDICATIVE OF A DISEASE OR CONDITION” (IMMUNEERING CORPORATION, priority 2013, published 2016)
“And” between values parts separate entries of the source, which are not always exact repeats. Equal values may be shown once.

Assays:
female mouse model of AD = conditions: cited from earlier work
NEUROD6 expression = assay: CMAP (Connectivity Map) expression profiles of cultured cells treated with compounds, searched for increased NEUROD6 expression (single-sample Wilcox test); type: cell-based; conditions: for p.val (compounds identified to upregulate enriched NEUROD6 expression): single-sample Wilcox test on CMAP expression profiles, cultured cells after treatment
From the text: The full CMAP (builds 01 and 02) datasets were obtained from the Broad Institute. […] The output p-values were adjusted for multiple hypothesis testing (FDR p value <0.05).

SNAP25 expression = assay: CMAP (Connectivity Map) expression profiles of cultured cells treated with compounds, searched for increased SNAP25 expression (single-sample Wilcox test); type: cell-based
From the text: The CMAP dataset is a large collection of microarray-based transcriptional signatures that includes over 7,000 expression profiles from cultured cells treated with 1,309 compounds. The full CMAP (builds 01 and 02) datasets were obtained from the Broad Institute. […] The output p-values were adjusted for multiple hypothesis testing (FDR p value <0.05).

mouse model of AD = conditions: cited from earlier work
mouse models of AD = conditions: cited from earlier work

SMILES: O=CC[C@@H](O)[C@H](O)[C@H](O)CO [2-deoxy-D-glucose]
- pathology (female mouse model of AD): reduce pathology

SMILES: CC(C)c1ccc2c(c1)c(SC(C)(C)C)c(CC(C)(C)C(=O)O)n2Cc1ccc(Cl)cc1 [MK-886]
- p.val (compounds identified to upregulate enriched NEUROD6 expression) (NEUROD6 expression): 2.46E−04

SMILES: CN(C(=O)C(Cl)Cl)c1ccc(O)cc1 [diloxanide]
- p.val (compounds identified to upregulate enriched SNAP25 expression) (SNAP25 expression; single-sample Wilcox test on CMAP expression profiles, cultured cells after treatment): 1.28E−04

SMILES: O=c1c(-c2ccc(O)cc2)coc2cc(O)cc(O)c12 [genistein]
- effect on NEUROD6 expression (NEUROD6 expression; CMAP analysis, in words): significantly elevate expression of NEUROD6

SMILES: CCN1C[C@]2(C)CC[C@H](O)[C@]34C1[C@@H](C[C@H]23)[C@@]1(O)C[C@H](OC)[C@H]2C[C@@H]4[C@@H]1[C@H]2O [karakoline]
- cognitive function (mouse model of AD): improve cognitive function

SMILES: C=C1C[C@@H](O)[C@H](/C=C/[C@@H](O)C(C)(C)CCCC)[C@H]1C/C=C\CCCC(=O)O [meteneprost]
- p.val (compounds identified to upregulate enriched NEUROD6 expression) (NEUROD6 expression): 2.05E−04

SMILES: C[C@@H]1C[C@H]2O[C@@H]2/C=C\C=C\C(=O)Cc2c(Cl)c(O)cc(O)c2C(=O)O1 [monorden]
- p.val (compounds identified to upregulate enriched NEUROD6 expression) (NEUROD6 expression): 2.17E−04 and 2.82E−04

SMILES: CCCC(CCC)C(=O)O [valproic acid]
- effect on SNAP25 expression (SNAP25 expression; CMAP analysis, in words): significantly elevate SNAP25 expression
- Aβ production (mouse models of AD): limit Aβ production
- behavioral deficits (mouse models of AD): limit Aβ production and behavioral deficits
- loss of neurons (mouse models of AD): protect against loss of neurons
